According to PMC6084929, “Differential effects of angiotensin II type I receptor blockers on reducing intraocular pressure and TGFβ signaling in the mouse retina” (PLoS ONE, 2018):

Key:
[1] = tested on: mouse model of normotensive glaucoma; set-up: method as in PMID 25032856; settings: cited from earlier work
[2] = tested on: rat model with IOP elevation; set-up: method as in PMID 19608537; settings: oral; cited from earlier work
[3] = target: AT1R; set-up: method as in PMID 20603272; settings: cited from earlier work
[4] = tested on: C57BL/6J mice; assay: Systolic BP by tail-cuff method in ARB-treated mice; format: in vivo, mouse; settings: 2 g drug/kg chow, day 3; p < 10^-4
Description: BP was measured by the tail-cuff method (BP 2000 Blood Pressure Analysis System, Visitech Systems, Apex, NC, USA) according to manufacturer recommendations and as previously described by an operator blinded to the treatment status of the mice. In brief, mice were restrained and their tail placed through an inflatable tail cuff held in place by adhesive tape. […] Mice were conditioned to the system prior to experimental measurements by being subjected to the full recording procedure daily for several days. Acclimation and BP measurements were performed between 9:00 and 11:00 a.m. Since diastolic measurements are inherently inaccurate with this method, only systolic BP is reported here. […] Sample sizes were not pre-determined by statistical methods, but are similar to or exceed numbers typical of similar experiments. The IOP changes of treated mice relative to the IOP changes of normal chow fed mice were presented with mean and 95% confidence interval based on t-statistics. A linear regression model for BP change from baseline was used to study effects of ARBs on BP, adjusting for baseline BP. For comparing IOP in groups of mice untreated or treated with ARBs for 3 and 7 days, a mixed effects model that included baseline IOP, left versus right eye, time of measurement and interaction between time and drug with random effects of intercept and slope within individual mice was used, adjusting for correlation between left and right eye within the same mouse, as well as repeated measurements over time. A one-way ANOVA was used for comparing chow pSmad2 fluorescence of mice untreated or treated with ARBs. The models for BP, IOP, and pSmad2 fluorescence were followed by Dunnett’s method for multiple comparisons correction. Differences in the change in IOP for each drug, relative to change in IOP of normal-fed control were evaluated at day 3 and day 7 of treatment, and differences in the rate of change in IOP were evaluated as the slope of the line defined by relative change at days 3 and 7. […]

[5] = tested on: C57BL/6J mice; assay: IOP measurement with Tonolab rebound tonometer in ARB-treated mice; format: in vivo, mouse; settings: for Change in IOP compared to normal chow control / Average reduction of the median IOP / Rate of IOP reduction compared to control: 2 g/kg in chow; for Change in IOP compared to normal chow control: after 3 and 7 days of treatment; for Average reduction of the median IOP: compared to day 0; for Rate of IOP reduction compared to control: slope between days 3 and 7; for Median IOP at day 0: before start of chow treatment, by treatment group
Description: IOP of mice anesthetized with 2.5% isoflurane in oxygen delivered at 1.5 L/min by an inhalation anesthesia system (Vet Equip, Livermore, CA, USA) was measured using a Tonolab rebound tonometer (Icare, Vantaa, Finland) following manufacturer’s recommendations by an operator blinded to the treatment status of the mice. Measurements were performed within 3 mins of immobilization to minimize isoflurane-induced IOP changes and at the same time of day (1:00–3:00 p.m.) to avoid diurnal variation.
Sample sizes were not pre-determined by statistical methods, but are similar to or exceed numbers typical of similar experiments. The IOP changes of treated mice relative to the IOP changes of normal chow fed mice were presented with mean and 95% confidence interval based on t-statistics. A linear regression model for BP change from baseline was used to study effects of ARBs on BP, adjusting for baseline BP. For comparing IOP in groups of mice untreated or treated with ARBs for 3 and 7 days, a mixed effects model that included baseline IOP, left versus right eye, time of measurement and interaction between time and drug with random effects of intercept and slope within individual mice was used, adjusting for correlation between left and right eye within the same mouse, as well as repeated measurements over time. A one-way ANOVA was used for comparing chow pSmad2 fluorescence of mice untreated or treated with ARBs. The models for BP, IOP, and pSmad2 fluorescence were followed by Dunnett’s method for multiple comparisons correction. Differences in the change in IOP for each drug, relative to change in IOP of normal-fed control were evaluated at day 3 and day 7 of treatment, and differences in the rate of change in IOP were evaluated as the slope of the line defined by relative change at days 3 and 7. Corrected p-values < 0.05 were considered significant. Linear regression and mixed effect model analysis was performed with R 3.4.1 (R Core Team. R: A language and environment for statistical computing. R Foundation for Statistical Computing, Vienna, Austria. URL http://www.R-project.org/, 2013). All other statistical analysis was performed using GraphPad Prism version 7.00 for Windows software (GraphPad Software, La Jolla, CA, USA).

[6] = Solubilization in unbuffered water; format: physicochemical; settings: attempt to solubilize for drinking water delivery
[7] = tested on: TGFβ signaling (pSmad2); assay: pSmad2 immunohistochemistry of the retina (RGC layer) as read-out of TGFβ signaling; format: in vivo, mouse; settings: 2 g/kg in chow, 7 days, 3 days
Description: Eyes were enucleated and post-fixed in PBS/PFA for an additional 24–48 h and embedded in paraffin. Five micron-thick sections were deparaffinized, incubated at 90°C for 30 mins in 10 mM sodium citrate buffer, pH 6.0 for epitope retrieval and then incubated for 2 h at room temperature in blocking solution (PBS/5% normal donkey serum/1% BSA/0.1% Tween-20). Sections were then incubated with rabbit polyclonal antibody to pSmad2 (1:100, Thermo Fisher Scientific, MA, USA) in blocking solution overnight at 4°C in a humidified chamber. Following three 5 min washes in wash solution (PBS/0.1% Tween-20), sections were incubated in AlexaFluor-546 labeled donkey anti-rabbit IgG diluted 1:1000 in blocking solution for 2 h at room temperature in a dark humidified chamber. Sections were washed again three times for 5 mins each in wash solution and cover-slipped with Prolong Gold Antifade with DAPI mounting medium (Thermo Fisher Scientific). Sections were imaged using a Nikon AZ 100M upright, wide-field microscope using a 5x Plan Fluor/0.5 NA air objective and captured with a Nikon DS-Ri1 color camera (Nikon Instruments, Melville, NY, USA). Retinal images were acquired adjacent to the optic nerve head. Immunostaining and imaging experiments using the right eye of each mouse were carried out in batches of sections that included samples from two vehicle-fed mice and two samples each from losartan, irbesartan and telmisartan-fed mice using identical image acquisition parameters within each batch. Immunostaining and imaging experiments were carried out twice for each batch of samples. Mean fluorescence intensity of pSmad2 immunofluorescence was quantified using FIJI (ImageJ) biological image analysis package. Background-subtracted mean fluorescence intensity of the RGC layer was determined by subtracting the mean background intensity within the adjacent inner plexiform layer from the mean fluorescence intensity within a mask drawn around the RGC layer. Normalized background-subtracted mean fluorescence intensity within each batch of samples was determined by dividing the background-subtracted mean fluorescence intensity of each sample by the average of the background-subtracted mean fluorescence intensities of the two vehicle-fed control samples. For each mouse, normalized background-subtracted mean fluorescence intensity was determined as the average of duplicate experiments and is presented as normalized mean fluorescence.

[8] = tested on: CD1 mice; settings: cited from earlier work
[9] = tested on: human glaucoma patients with elevated IOP, and normal controls; settings: 50 mg oral dose; cited from earlier work
[10] = tested on: rabbit eyes with induced IOP elevation; set-up: method as in PMID 10942157; settings: eye drops of 0.1% losartan in saline; cited from earlier work
[11] = tested on: monkeys with laser-induced IOP elevation; set-up: method as in PMID 15862169; settings: cited from earlier work
[12] = tested on: rabbits with experimental and inherited elevated IOP; set-up: method as in PMID 11840352; settings: cited from earlier work
[13] = set-up: method as in PMID 23487168; settings: cited from earlier work

Compound	Kd [3] [nM]	Systolic BP compared to mice fed normal chow [4]	Change in IOP compared to normal chow control [5]	Average reduction of the median IOP [5] [%]	Rate of IOP reduction compared to control [5]	Median IOP at day 0 [5]	Solubility in unbuffered water [6]	Effect on pSmad2 fluorescence of the RGC layer [7]	further results
CCOc1nc2cccc(C(=O)O)c2n1Cc1ccc(-c2ccccc2-c2nnn[nH]2)cc1 [candesartan]									Effect on IOP ([1]; 10 mg/kg/day by oral gavage): no effect on IOP; Effect on RGCs and inner retina ([1]; orally administered): reduced loss of RGCs and thinning of the inner retina; Effect on IOP [2]: did not affect IOP; Effect on RGC loss [2]: reduced RGC loss
CCCCC1=NC2(CCCC2)C(=O)N1Cc1ccc(-c2ccccc2-c2nnn[nH]2)cc1 [irbesartan]	~2	significantly lower BP	significant decreases in IOP	15.4	significantly greater than control	17.0	readily precipitated out of solution	no significant effect	
CCCCc1nc(Cl)c(CO)n1Cc1ccc(-c2ccccc2-c2nn[nH]n2)cc1 [losartan, Losartan potassium]	~10	significantly lower BP	did not significantly lower IOP		no significant effect	16.9		no significant effect	Effect on IOP ([8]; 0.6 g/L in drinking water, normotensive eyes or eyes with microbead-induced elevated IOP): no effect on IOP; Effect on RGCs ([8]; oral via drinking water, eyes with elevated IOP induced by microbead injection): neuroprotective effect for RGCs; Mean reduction of IOP [9]: ≤ 16%; IOP after losartan treatment ([5]; 1.2 g/L losartan in drinking water, 3 days, 10 female C57BL/6 mice 1 year of age, right eye, mean +/-SD, p = 0.4): 15.4 +/- 1.9 mmHg; Effect on IOP ([5]; 1.2 g/L losartan in drinking water, 3 days, normal mice): did not affect IOP; IOP before losartan treatment (baseline) ([5]; 1.2 g/L losartan in drinking water, 10 female C57BL/6 mice 1 year of age, right eye, mean +/-SD): 14.8 +/-1.4 mmHg; Effect on IOP [10]: IOP-lowering effects
CCCc1nc(C(C)(C)O)c(C(=O)O)n1Cc1ccc(-c2ccccc2-c2nnn[nH]2)cc1 [olmesartan]									Effect on IOP [11]: IOP-lowering effects; Effect on IOP [12]: IOP-lowering effects
CCCc1nc2c(C)cc(-c3nc4ccccc4n3C)cc2n1Cc1ccc(-c2ccccc2C(=O)O)cc1 [telmisartan]		significantly lower BP	significant decreases in IOP	13.3	significantly greater than control	16.7	readily precipitated out of solution	significantly reduced	Lipophilicity [13]: most lipophilic ARB; Reduction of pSmad2 fluorescence in the RGC layer compared to normal fed mice ([7]; p = 0.034): 70%
